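Step 1: Grow cells in 96-well plates. Step 2: Expose to compound for 48 hours at 5 concentrations. Step 3: Interpolate endpoints linearly; if unreached, use highest concentration. The concentration for 50% growth inhibition is given as GI50.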 Active and inactive are the calls of the source. No stated cut-off is given here; in the data, active = GI50 up to about 1.1 µM and inactive = higher.

Among the test systems are CCRF-CEM; DU-145; SN12C; COLO 205; SF-268; SK-OV-3; K562; MDA-MB-231; SK-MEL-2; SW-620; HOP-92; NCI-H23; OVCAR-3; MOLT-4; OVCAR-4; SK-MEL-28; TK-10; RPMI-8226; NCI-H226; UO-31.
Common to all, as to experiment: NCI anticancer screen, dose series, 48 h

Regarding `CCOC(=O)COc1cc(-c2ccccc2)nc2cc(F)ccc12`, the GI50 in the test on CCRF-CEM is 85.7 µM (inactive); in the test with DU-145, > 100 µM (inactive); with SN12C it was > 100 µM (inactive); in the test with COLO 205, > 100 µM (inactive); in the test on SF-268 it was > 100 µM (inactive); with SK-OV-3 it was > 100 µM (inactive). The GI50 was > 100 µM (inactive) with K562; > 100 µM (inactive) in the test on MDA-MB-231; > 100 µM (inactive) in the test with SK-MEL-2; > 100 µM (inactive) in the test with SW-620; 52 µM (inactive) in the test with HOP-92; > 100 µM (inactive) in the test on NCI-H23. The GI50 in the test with OVCAR-3 is > 100 µM (inactive); in the test on MOLT-4, > 100 µM (inactive); in the test with OVCAR-4 it was 42 µM (inactive); in the test with SK-MEL-28 it was > 100 µM (inactive); in the test on TK-10, > 100 µM (inactive); in the test with RPMI-8226, > 100 µM (inactive). In addition, the GI50 with NCI-H226 is > 100 µM (inactive).

For `COc1cc(/C=N/c2ccc(Oc3ccc(Cl)cc3)c(Cl)c2)cc(OC)c1OC`, the GI50 with CCRF-CEM was 12.4 µM (inactive); in the test with DU-145, 11.7 µM (inactive); in the test with SN12C, 20.9 µM (inactive); in the test with COLO 205, 17.2 µM (inactive); in the test on SF-268 it was 12.4 µM (inactive); in the test with SK-OV-3, > 10 µM (inactive). Further, the GI50 with MDA-MB-231 is 16.8 µM (inactive); in the test on SK-MEL-2 it was 17.8 µM (inactive); with SW-620 it was 34.2 µM (inactive); in the test with HOP-92, 19.1 µM (inactive); in the test on UO-31, 11 µM (inactive); in the test on NCI-H23, 20.2 µM (inactive). Besides, the GI50 was 20 µM (inactive) in the test on OVCAR-3; 24.9 µM (inactive) with MOLT-4; 19.4 µM (inactive) in the test with OVCAR-4; 21.3 µM (inactive) in the test with SK-MEL-28; 32.9 µM (inactive) in the test on TK-10; 18.9 µM (inactive) in the test on RPMI-8226. Besides, the GI50 in the test with NCI-H226 is 26.6 µM (inactive).

In the case of `CC(/C=C/c1ccc([N+](=O)[O-])o1)=N/N1CC(CN2CCOCC2)OC1=O` (configuration not stated), the GI50 in the test with CCRF-CEM is 0.771 µM (active); in the test with DU-145 it was 19.9 µM (inactive); in the test on SN12C, 25.4 µM (inactive); in the test on COLO 205, 16.3 µM (inactive); in the test on SF-268, 17.7 µM (inactive); in the test with SK-OV-3, 52.2 µM (inactive). The GI50 in the test with K562 is 16.9 µM (inactive); with MDA-MB-231 it was 23.6 µM (inactive); in the test on SK-MEL-2, 16.9 µM (inactive); in the test with SW-620, 30.2 µM (inactive); in the test with HOP-92, 13.6 µM (inactive); in the test on UO-31, 21.3 µM (inactive). Moreover, the GI50 in the test on NCI-H23 is 20.7 µM (inactive); in the test with OVCAR-3, 16.1 µM (inactive); with MOLT-4, 22.9 µM (inactive); with OVCAR-4 it was 14 µM (inactive); with SK-MEL-28, 17.3 µM (inactive); in the test on TK-10, 45.1 µM (inactive). Also, the GI50 in the test on RPMI-8226 was 9.64 µM (inactive); in the test with NCI-H226, 21.4 µM (inactive).

As to `O=Cc1ccc(-c2ccc(-c3ccc(C=O)s3)o2)s1`, the GI50 was > 43.6 µM (inactive) with CCRF-CEM; > 100 µM (inactive) with DU-145; 97.9 µM (inactive) in the test with SN12C; 18.7 µM (inactive) in the test on COLO 205; > 100 µM (inactive) with SF-268; > 97.3 µM (inactive) with SK-OV-3. Also, the GI50 in the test with K562 was 28.2 µM (inactive); in the test on MDA-MB-231, > 100 µM (inactive); with SK-MEL-2 it was > 90.6 µM (inactive); with SW-620 it was > 80.7 µM (inactive); with HOP-92, > 89.3 µM (inactive); in the test on UO-31 it was 68.5 µM (inactive). Besides, the GI50 was > 100 µM (inactive) in the test on NCI-H23; 1.44 µM (inactive) in the test on OVCAR-3; > 75.7 µM (inactive) with MOLT-4; 2.79 µM (inactive) in the test on OVCAR-4; 98.4 µM (inactive) with SK-MEL-28; 1.46 µM (inactive) in the test with TK-10. The GI50 is > 100 µM (inactive) with RPMI-8226 and 0.656 µM (active) in the test on NCI-H226.

Take `CCc1nc(N)nc(N)c1-c1ccc(Cl)c(/N=N/N(C)C)c1`: the GI50 was 27 µM (inactive) in the test with CCRF-CEM; 55.7 µM (inactive) in the test on DU-145; 67.8 µM (inactive) in the test on SN12C; 24.1 µM (inactive) in the test on COLO 205; 49.2 µM (inactive) in the test with SF-268; > 89.3 µM (inactive) with SK-OV-3. For the same compound, the GI50 was 8.04 µM (inactive) in the test with K562; 48.8 µM (inactive) in the test with MDA-MB-231; 32.2 µM (inactive) with SK-MEL-2; 27.4 µM (inactive) with SW-620; 47.8 µM (inactive) in the test with HOP-92; 18.4 µM (inactive) in the test with UO-31. For the same compound, the GI50 in the test on NCI-H23 is 27.4 µM (inactive); in the test on OVCAR-3 it was 37.6 µM (inactive); in the test on MOLT-4, 26.5 µM (inactive); in the test on OVCAR-4, 25.1 µM (inactive); in the test on SK-MEL-28, 29.1 µM (inactive); in the test with TK-10, > 100 µM (inactive). For the same compound, the GI50 in the test with RPMI-8226 is 19 µM (inactive); in the test on NCI-H226, 59.6 µM (inactive).

In the case of `Cc1cn(CC(=S)NCCc2c[nH]c3ccccc23)c(=O)[nH]c1=O`, the GI50 was 44.3 µM (inactive) in the test on CCRF-CEM; > 100 µM (inactive) with DU-145; > 100 µM (inactive) in the test with SN12C; > 100 µM (inactive) with COLO 205; > 100 µM (inactive) with SF-268; > 100 µM (inactive) in the test with SK-OV-3. The GI50 is 39.1 µM (inactive) with K562; > 100 µM (inactive) in the test on MDA-MB-231; > 100 µM (inactive) in the test on SK-MEL-2; > 100 µM (inactive) with SW-620; > 100 µM (inactive) with HOP-92; 87.1 µM (inactive) in the test with UO-31. Besides, the GI50 is 59.3 µM (inactive) in the test with NCI-H23; > 100 µM (inactive) with OVCAR-3; 12.8 µM (inactive) in the test on MOLT-4; 48.8 µM (inactive) in the test on OVCAR-4; > 100 µM (inactive) in the test with SK-MEL-28; 46.5 µM (inactive) with RPMI-8226. Also, the GI50 in the test with NCI-H226 is 33.5 µM (inactive).

For `NCc1ccc(-c2ccc(CN)s2)s1`, the GI50 was > 100 µM (inactive) with CCRF-CEM; > 100 µM (inactive) with DU-145; > 100 µM (inactive) with SN12C; 23 µM (inactive) in the test on COLO 205; 83.8 µM (inactive) with SK-OV-3; > 100 µM (inactive) in the test on K562. Also, the GI50 with MDA-MB-231, in the test on SK-MEL-2, in the test on SW-620, with HOP-92, in the test on UO-31 and in the test with NCI-H23 was > 100 µM (inactive) each time. For the same compound, the GI50 in the test with OVCAR-3 is 42.3 µM (inactive); with MOLT-4, > 100 µM (inactive); with OVCAR-4, > 100 µM (inactive); with SK-MEL-28, > 100 µM (inactive); in the test with TK-10, 11.3 µM (inactive); in the test with RPMI-8226, > 100 µM (inactive). For the same compound, in the test on NCI-H226, the GI50 was 41.1 µM (inactive).

For `Cc1ccc(C)c(/C(=N\N=C(N)N)C2CC2)c1`, the GI50 is 58.9 µM (inactive) in the test with DU-145; 56 µM (inactive) in the test on SN12C; 35.1 µM (inactive) with COLO 205; 39.5 µM (inactive) with SF-268; > 100 µM (inactive) in the test with SK-OV-3; 20.5 µM (inactive) with K562. For the same compound, the GI50 was 63.4 µM (inactive) with MDA-MB-231; 50.8 µM (inactive) with SK-MEL-2; 33.1 µM (inactive) in the test on SW-620; 47.2 µM (inactive) in the test on HOP-92; 59.8 µM (inactive) in the test on UO-31; 20.7 µM (inactive) in the test with NCI-H23. Moreover, the GI50 is 94.6 µM (inactive) in the test with OVCAR-3; 35.2 µM (inactive) in the test with MOLT-4; > 100 µM (inactive) in the test with OVCAR-4; 35 µM (inactive) in the test with SK-MEL-28; 34 µM (inactive) in the test with TK-10; 28.8 µM (inactive) in the test on RPMI-8226. In addition, the GI50 with NCI-H226 is 31.7 µM (inactive).

`O=C1c2ccccc2C(=O)c2c1ccc(C1C(=O)c3ccccc3C1=O)c2-c1c(C2C(=O)c3ccccc3C2=O)ccc2c1C(=O)c1ccccc1C2=O`: the GI50 in the test on DU-145 was > 100 µM (inactive); with SN12C it was > 100 µM (inactive); in the test with COLO 205 it was > 100 µM (inactive); in the test on SF-268, > 100 µM (inactive); in the test on SK-OV-3, > 100 µM (inactive); in the test on K562, 36.6 µM (inactive). Also, the GI50 with MDA-MB-231 was 47.3 µM (inactive); in the test on SK-MEL-2, > 100 µM (inactive); in the test on SW-620 it was 15.3 µM (inactive); in the test on HOP-92, > 100 µM (inactive); with UO-31, > 100 µM (inactive); in the test on OVCAR-3 it was > 100 µM (inactive). Also, the GI50 is 19 µM (inactive) in the test with MOLT-4; > 100 µM (inactive) in the test with OVCAR-4; > 100 µM (inactive) with SK-MEL-28; > 100 µM (inactive) in the test on TK-10; 13.1 µM (inactive) in the test on RPMI-8226; > 100 µM (inactive) in the test on NCI-H226.

With `c1ccc2c(c1)N=c1cc3c(cc1N2)=NC12CCCCC1CC1=C(CCCC1)N32` (configuration not stated), the GI50 is 2.12 µM (inactive) in the test on CCRF-CEM; > 10 µM (inactive) in the test with DU-145; 2.36 µM (inactive) with SN12C; 1.79 µM (inactive) in the test with COLO 205; 4.55 µM (inactive) in the test on SF-268; > 10 µM (inactive) in the test on SK-OV-3. Also, the GI50 was 2.2 µM (inactive) in the test on K562; 4.16 µM (inactive) in the test with MDA-MB-231; 3.44 µM (inactive) in the test on SK-MEL-2; 5.47 µM (inactive) in the test on SW-620; 4.46 µM (inactive) in the test on HOP-92; 4.56 µM (inactive) with NCI-H23. Moreover, the GI50 in the test with OVCAR-3 was 1.74 µM (inactive); in the test with MOLT-4, 2.6 µM (inactive); in the test on OVCAR-4 it was 2.15 µM (inactive); in the test with SK-MEL-28, 3.3 µM (inactive); in the test on TK-10 it was 5.02 µM (inactive); in the test on RPMI-8226 it was 2.07 µM (inactive). For the same compound, in the test on NCI-H226, the GI50 was 2.31 µM (inactive).

Values taken from ChEMBL document CHEMBL1201862, “PubChem BioAssay data set” (2004).
